Experiments:
[1] = test system: ALOMY; experiment: Pre-emergence herbicidal action against ALOMY; type: in vivo, Alopecurus myosuroides; details: 320 g/ha, scored visually after 3 weeks vs untreated controls
Outline: (§1)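 Percent activity (0% = like control, 100% = dead) read visually after a 3-week greenhouse period. Application: aqueous WP or EC formulations sprayed onto soil covering sown seeds, water rate 600 to 800 L/ha with 0.2% wetting agent.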

[2] = test system: AVEFA; experiment: Pre-emergence herbicidal action against AVEFA; type: in vivo, Avena fatua; details: 320 g/ha, scored visually after 3 weeks vs untreated controls
Outline: as §1

[3] = test system: DIGSA; experiment: Pre-emergence herbicidal action against DIGSA; type: in vivo, Digitaria sanguinalis; details: 320 g/ha, scored visually after 3 weeks vs untreated controls
Outline: as §1

[4] = test system: ECHCG; experiment: Pre-emergence herbicidal action against ECHCG; type: in vivo, Echinochloa crus-galli; details: 320 g/ha, scored visually after 3 weeks vs untreated controls
Outline: as §1

[5] = test system: SETVI; experiment: Pre-emergence herbicidal action against SETVI; type: in vivo, Setaria viridis; details: 320 g/ha, scored visually after 3 weeks vs untreated controls
Outline: as §1

[6] = test system: AMARE; experiment: Pre-emergence herbicidal action against AMARE; type: in vivo, Amaranthus retroflexus; details: 320 g/ha
Excerpt: (§2) Seeds of monocotyledonous and dicotyledonous weed plants and crop plants are laid out in sandy loam soil in wood-fiber pots and covered with soil. The compounds of the invention, formulated in the form of wettable powders (WP) or as emulsion concentrates (EC), are then applied to the surface of the covering soil as aqueous suspension or emulsion at a water application rate equating to 600 to 800 L/ha with addition of 0.2% wetting agent.
(§3) After the treatment, the pots are placed in a greenhouse and kept under good growth conditions for the trial plants. The damage to the test plants is scored visually after a test period of 3 weeks by comparison with untreated controls (herbicidal activity in percent (%): 100% activity=the plants have died, 0% activity=like control plants).

[7] = test system: VIOTR; experiment: Pre-emergence herbicidal action against VIOTR; type: in vivo, Viola tricolor; details: 320 g/ha
Excerpt: as §2, §3

[8] = test system: ALOMY; experiment: Post-emergence herbicidal action against ALOMY; type: in vivo, Alopecurus myosuroides; details: 80 g/ha, visual assessment after about 3 weeks
Outline: (§4)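 Visual scoring about 3 weeks after treatment gave % herbicidal action relative to untreated plants (0% = control-like, 100% = plants dead). Compounds, as WP or EC with 0.2% wetting agent, were sprayed onto green parts at 600–800 l/ha. Plants had reached the one-leaf stage, 2–3 weeks after sowing in sandy loam under greenhouse conditions.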

[9] = test system: AVEFA; experiment: Post-emergence herbicidal action against AVEFA; type: in vivo, Avena fatua; details: 80 g/ha, visual assessment after about 3 weeks
Outline: as §4

[10] = test system: DIGSA; experiment: Post-emergence herbicidal action against DIGSA; type: in vivo, Digitaria sanguinalis; details: 80 g/ha, visual assessment about 3 weeks after treatment vs untreated controls
Outline: as §4

[11] = test system: ECHCG; experiment: Post-emergence herbicidal action against ECHCG; type: in vivo, Echinochloa crus-galli; details: 80 g/ha, visual assessment about 3 weeks after treatment vs untreated controls
Outline: as §4

[12] = test system: LOLRI; experiment: Post-emergence herbicidal action against LOLRI; type: in vivo, Lolium rigidum; details: 80 g/ha, visual assessment about 3 weeks after treatment vs untreated controls
Outline: as §4

[13] = test system: SETVI; experiment: Post-emergence herbicidal action against SETVI; type: in vivo, Setaria viridis; details: 80 g/ha, visual assessment about 3 weeks after treatment vs untreated controls
Outline: as §4

[14] = test system: LOLRI; experiment: Pre-emergence herbicidal action against LOLRI (Table 8, titled post-emergence at 320 g/ha); type: in vivo, Lolium rigidum; details: table stands in the pre-emergence section
Outline: as §1

[15] = test system: VERPE; experiment: Pre-emergence herbicidal action against VERPE; type: in vivo, Veronica persica; details: 320 g/ha
Excerpt: as §2, §3

SMILES	Pre-emergence action against ALOMY in % [1] [%]	Pre-emergence action against AVEFA in % [2] [%]	Pre-emergence action against DIGSA in % [3] [%]	Pre-emergence action against ECHCG in % [4] [%]	Pre-emergence action against SETVI in % [5] [%]	Pre-emergence action against AMARE in % [6] [%]	Pre-emergence action against VIOTR in % [7] [%]	Post-emergence action against ALOMY in % [8] [%]	Post-emergence action against AVEFA in % [9] [%]	Post-emergence action against DIGSA in % [10] [%]	Post-emergence action against ECHCG in % [11] [%]	Post-emergence action against LOLRI in % [12] [%]	Post-emergence action against SETVI in % [13] [%]	Pre-emergence herbicidal action against LOLRI in % [14] [%]	Pre-emergence action against VERPE in % [15] [%]
CC#Cc1cc(C)c(C2=C(OC(=O)OCC)C3(CCC(COC)C3)NC2=O)c(OC)c1 (centres unmarked) [Example P-47]	100	100	100	100	100	100	100	100	90	100	100	100	100	–	–
CC#Cc1cc(C)c(C2=C(OC(=O)C(C)C)C3(CCC(COC)C3)NC2=O)c(F)c1 (centres unmarked) [Example P-57]	100	80	100	100	100	80	100	100	90	100	100	100	100	100	–
C=CCOCC1CCC2(C1)NC(=O)C(c1c(F)cc(C#CC)cc1OC)=C2OC(=O)OCC (centres unmarked) [Example P-77]	100	90	100	100	100	–	100	90	–	80	100	–	100	100	80
C=CCOCC1CCC2(C1)NC(=O)C(c1c(C)cc(C#CC)cc1Br)=C2OC(=O)OCC (centres unmarked) [Example P-85]	100	80	100	100	100	–	100	80	–	90	100	90	100	100	90
C#CCOCC1CCC2(C1)NC(=O)C(c1c(F)cc(C#CC)cc1OC)=C2OC(=O)OCC (centres unmarked) [Example P-102]	100	80	100	100	100	90	–	90	80	90	80	90	90	100	–

Source: patent US20220386606A1, “SPECIFICALLY SUBSTITUTED 3-PHENYL-5-SPIROCYCLOPENTYL-3-PYRROLIN-2-ONES AND THEIR USE AS HERBICIDES” (Bayer Aktiengesellschaft, priority 2019, published 2022)
